Measurements reported in US12173317B2, “Use of histone modifiers to reprogram effector T cells” (Board of Regents, The University of Texas System, priority 2018, dated 2024).
Entries after “also recorded” stand apart in the source; their conditions may differ.

Columns and labels:
target tumor cells = experiment: Chromium release assay (CRA); type: cell-based; settings: effector:tumor 20:1, 4 hours, compared with regular expansion
Description: Chromium Release Assay (CRA): Tumor cells were labeled with Cr51 before being incubated with antigen-specific CTLs at effector:tumor of 20:1 for 4 hours. The Cr51 amount in the supernatants was measured and the killing efficiency was calculated as % killing=100%×(sample average−average of negative control)/([…]).
Chromium Release Assay (CRA): Tumor cells were labeled with Cr51 before being incubated with antigen-specific CTLs at effector:tumor of 20:1 for 4 hours. The Cr51 amount in the supernatants was measured and the killing efficiency was calculated as % killing=100%×(sample average−average of negative control)/(average of positive control−average of negative control).

[1] = test system: tumor antigen-specific CTL lines; experiment: REP and mini-REP expansion fold of CTLs; type: cell-based, human; settings: 2 weeks
Description: The TILs were cultured from patient melanoma tumors. […] After 14 days, cells were used for further analyses. For studies with SAHA (FIG. 2), SAHA was used at […].
Mini-REP was started scaling down from T25 flasks to 24-well plates accordingly. IL-21 and Panobinostat dose remained unchanged.
To examine the clinical applicability of Panobinostat (Pano) in the setting of antigen-specific ACT, MART1 (M27)-specific effector/effector memory cells generated via the ETC approach were used and expanded in vitro by REP, as previously described (Yee, 2014). Cells were expanded with four different protocols (regular, adding IL-21 alone, adding Pano alone, or IL-21+Pano). […] It was posited that Panobinostat, like SAHA, enabled STAT3 and other transcription factors/cofactors to access binding sites and induce CD28 and CD62L expression.
The TILs were cultured from patient melanoma tumors. […] After 14 days, cells were used for further analyses.

[2] = test system: MART1 (M27)-specific effector CD8+ T cells; experiment: CD28 level on M27-specific effector CD8+ T cells by flow cytometry; type: cell-based, human; settings: activation with M27-pulsed mature dendritic cells, 4 days
Description: The present studies were performed to develop a method to reprogram or de-differentiate effector T cells that express CD45RO to central memory T cells that express CD62L and CD28 (FIG. 8). The effect of IL-21 and histone deacetylase inhibitor (HDACi) treatment on central memory markers CD28 and CD62L was evaluated. MART1 (M27)-specific effector CD8^+ T cells were untreated or pretreated with SAHA for 24 hours, followed by activation with M27-pulsed mature dendritic cells in the presence or absence of SAHA/IL-21 for 4 days.
(§1) Flow Cytometry: Cells were stained with antibodies against CD8, CD28, CD62L or CD132. All FACS data were acquired via an LSR II flow cytometer and analyzed via FlowJo software (Tree Star, Inc.).
To assess the effect of SAHA/IL-21 on CD28 expression in the context of a more physiologic, antigen-specific (in contrast to non-specific polyclonal) stimulation, this effect was evaluated on MART1 (M27)-specific effector/effector memory cells generated using peptide-pulsed autologous dendritic cells. MART1 (M27)-specific effector CD8^+ T cells (CD45RO^+, CD28-neg, CD62L-neg) were generated following iterative cycles of in vitro stimulation, tetramer-guided sorting of M27-specific CTL and expansion to uniformity (>95% MART-1-specific effector CTL). First, the effect of SAHA was evaluated on pSTAT3 binding to the CD28 promoter region. […]

[3] = test system: tumor antigen-specific CTL cells; experiment: Intracellular staining of IFN-γ and granzyme B; type: cell-based, human; settings: restimulated with tumor cells
Description: Intracellular Staining: The cells were restimulated with tumor cells for 16 hours and stained with antibody against CD8, followed by fixation and staining with antibodies against IFN-γ and granzyme B in permeabilization buffer. The cells were washed and resuspended in FACS buffer before analysis.

human CD8+ T cells = experiment: CD28 expression in polyclonally activated human CD8+ T cells; type: cell-based
Text: (§2) IL-21 upregulates CD28 expression on activated human naïve CD8^+ T cells: CD28 is a pivotal costimulatory molecule for naïve T cell activation and memory T cell function. […] To investigate the molecular mechanisms of IL-21-induced CD28 expression, melanoma antigen recognized by T cells (MART1, M27)-specific CTLs were generated in the absence or presence of IL-21 as previously described (Li et al., 2005). […] To further corroborate the findings, sort-purified naïve human CD8^+ T cells (CD45RA^+CCR7^+) from healthy donors were activated with anti-CD3/CD28 beads in the absence or presence of IL-21 and surface CD28 expression was detected by flow cytometry.
(§3) Polyclonal stimulation of CD8^+ T cells: Naïve CD8^+ T cells (CD8^+CD45RA^+CCR7^+) were flow cytometry-sorted or were isolated using EasySep™ Human Naïve CD8^+ T Cell Enrichment Kit (StemCell). In some experiments, total CD8^+ T cells were negatively selected using EasySep™ Human CD8^+ T Cell Enrichment Kit (StemCell). The purity of the naïve or total CD8^+ T cells was greater than 95% as determined by flow cytometry. CD8^+ T cells were cultured in RPMI 1640 with 10% fetal bovine serum and penicillin/streptomycin. CD8^+ T cells were activated using Dynabeads® Human T-Activator CD3/CD28 for T-Cell Expansion and Activation (Life Technologies) at a bead:cell ratio of 1:1 or together with 30 ng/mL human IL-21 (Peprotech). At the indicated time points, T cells were harvested and beads were removed using a magnet before downstream analysis.
as §1
Quantitative real-dime PCR: Total RNA was prepared using Qiagen RNA purification kit. cDNA. was made using Superscript reverse transcriptase and oligo(dT) primers (Life Technology), and gene expression was detected with a Bio-Rad iCycler Optical System using iQ SYBR green real-time PCR kit (Bio-Rad Laboratories, Inc.). The data were normalized to the reference gene RPL13A. RPL13A primer was purchased from Qiagen. Other primer pairs used were: CD28 forward: […] (SEQ ID NO:2), reverse: […] (SEQ ID NO: 3); CD62L forward: […] (SEQ ID NO: 4), reverse: […] (SEQ ID NO: 5); Additional primers included lymphoid enhancer-binding factor 1 (LEFI) forward: […] (SEQ ID NO: 6), reverse: […] (SEQ ID NO: 7); transcription factor 1 (TCF1) forward: […] (SEQ ID NO: 8), reverse: CCTCGACCGCCTCTTCTTC (SEQ ID NO: 9).
Human shRNA Knockdown: Total CD8^+ T cells were isolated and transfected with 5 μg negative control, STAT1 shRNA, or STAT3 shRNA (Dharmacon) using Amaxa human T cell Nucleofector Kit according to the manufacturer's instructions (Lonza). Transfected cells were rested for 1-2 days and live GFP^+ cells were sort-purified for immunoblot analysis or were stimulated for 7 days as previously described before further analysis.

M27-specific CTLs = experiment: CD28 expression in M27-specific CTLs generated with IL-21; type: cell-based, human
Text: as §2, §1
Quantitative real-dime PCR: Total RNA was prepared using Qiagen RNA purification kit. cDNA. was made using Superscript reverse transcriptase and oligo(dT) primers (Life Technology), and gene expression was detected with a Bio-Rad iCycler Optical System using iQ SYBR green real-time PCR kit (Bio-Rad Laboratories, Inc.). The data were normalized to the reference gene RPL13A. RPL13A primer was purchased from Qiagen. Other primer pairs used were: CD28 forward: […] (SEQ ID NO:2), reverse: […] (SEQ ID NO: 3); CD62L forward: […] […]

CD132 (γC) = experiment: CD132 surface level on expanded CTLs by flow cytometry; type: cell-based, human; settings: CD8+ gate
Text: (§4) The expanded TILs/CTLs were also stained with antibodies against CD8 and CD132 and analyzed using the CD8^+ gate. […] In addition, the expanded CTLs were labeled with carboxyfluorescein succinimidyl ester (CFSE) and cultured with IL-2 or IL-15 for 2 days to check cell division. […] (FIG. 4B).
as §1

STAT1 = experiment: Western blot of pSTAT1; type: cell-based, human; settings: naïve CD8+ T cells, anti-CD3/CD28 beads, 30 minutes after activation
Description: as §3
(§5) Western Blot analysis: Equal number of cells was lysed in 2×SDS loading buffer and loaded for immunoblot analysis with different antibodies (Cell Signaling). Anti-β-actin-HRP was from Santa Cruz Biotech. β-actin was used as the loading control for all immunoblot experiments. The results were quantified using ImageJ and normalized to the density of actin in the corresponding samples.

CD28 promoter = experiment: Chromatin immunoprecipitation (ChIP) on the CD28 promoter; type: cell-based, human
Description: Chromatin immunoprecipitation (ChIP): ChIP was performed using a ChIP Assay Kit according to the manufacturer's instructions (Millipore). Quantitative real-time PCR was performed with primers: CD28 promoter proximal STAT sites: forward […] (SEQ ID NO:10), reverse […] (SEQ ID NO: 11); distal STAT sites: forward […] (SEQ ID NO: 12), reverse […] (SEQ ID NO: 13); Rabbit IgG was used as a negative control.

STAT3 = experiment: Western blot of IL-21-induced pSTAT3; type: cell-based, human
Description: as §3, §5

STAT5 = experiment: Western blot of pSTAT5; type: cell-based, human; settings: naïve CD8+ T cells, anti-CD3/CD28 beads, 30 minutes after activation
Description: as §3, §5

expanded CTLs = experiment: CFSE proliferation of expanded CTLs with IL-2 or IL-15; type: cell-based, human; settings: 2 days
Description: as §4
Central memory function associated with the IL-21/Pano-induced CD28^+CD62L^+ population was evaluated by the ability of these central memory-like T cells to undergo homeostatic proliferation in response to IL-7 and IL-15. ETC cells expanded with four different protocols (regular, adding IL-21 alone, adding Pano alone, or IL-21+Pano) were labeled with CFSE and cultured with IL-2, IL-7 or IL-15 for 2 days. […] Adding Panobinostat alone to REP increased cell proliferation in response to IL-15 but not to IL-2. […] Since IL-2 and IL-15 share CD132 (γC) and CD122 receptor subunits, CD132 and CD122 levels were assessed on the surface of these cells.

[4] = test system: tumor infiltrating lymphocytes (TILs)
Description: The effect of IL-21 and Panobinostat in the clinical-relevant TIL expansion was assessed.
To examine the possible de-differentiating effect of an HDAC inhibitor/IL-21 combination, TILs were untreated or pretreated with SAHA for 24 hours, then subjected to regular REP (irradiated PBMC and LCL cells, anti-CD3 and IL-2), or REP with SAHA/IL-21.
The TILs were cultured from patient melanoma tumors. […] For studies with SAHA, SAHA was used at 1-5 μM.
TILs were cultured in 50% AIM-V, 50% TIL complete medium which contains RPMI1640, 10% human AB serum, 10 mM HEPES, and 2-Mercaptoethanol. […] IL-21 (30 ng/ml) or HDACi SAHA (1-5 μM) or Panobinostat (1-3 nM) was added on day 0, 4 and 7 if included in the expansion. After 14 days, expanded cells were subjected to further analyses.

[5] = test system: histone H3 acetylation (AcH3); experiment: Western blot of H3 acetylation (AcH3) level; type: cell-based, human
Text: as §5

Molecule: IL-21: Human Interleukin 21, protein cytokine of 162 amino acids (SEQ ID NO:1)
- tumor cell killing (target tumor cells): enhanced
- yield of cell expansion ([1]; mini-REP): dramatically increased
- expansion yield / expansion fold ([1]; regular REP): similar
- CD28 expression [2]: slightly increased; also recorded: not observed
- IFNγ and granzyme B expression [3]: augmented
- IL-21-mediated enhancement of CD28 expression (human CD8+ T cells; CD8+ T cells from Job's syndrome patients): completely abrogated
- IL-21-induced CD28 protein and mRNA upregulation diminished (human CD8+ T cells; STAT1 shRNA-transfected CD8+ T cells): not
- IL-21-induced CD28 protein and mRNA upregulation (human CD8+ T cells; STAT3 shRNA-transfected CD8+ T cells): diminished
- CD28 expression (human CD8+ T cells; activated TEMRA CD8+ T cells): minimally upregulated
- CD28 mRNA level (human CD8+ T cells; naïve CD8+ T cells, anti-CD3/CD28): greatly augmented
- CD28 surface level expression (human CD8+ T cells; naïve CD8+ T cells, anti-CD3/CD28 beads): significantly increased; also recorded: upregulates
- expression of CD28 at protein and mRNA levels (human CD8+ T cells; total CD8+ T cells from healthy donors): increased
- CD28 mRNA level (M27-specific CTLs): greatly augmented
- CD28 expression (M27-specific CTLs; compared with cells generated in the absence of IL-21): significantly higher
- CD132 (γ chain) surface expression (CD132 (γC)): upregulate; also recorded: significantly increased
- STAT1 phosphorylation (STAT1): strong
- enrichment of STAT3 at proximal and distal CD28 promoter regions (CD28 promoter; anti-CD3/CD28 and IL-21 relative to anti-CD3/CD28 alone): 2-3 fold
- IL-21-induced STAT3 phosphorylation levels, naïve compared with effector CD8+ T-cells (STAT3): comparable
- STAT3 phosphorylation (STAT3; effector CD8+ T cells): induced STAT3 phosphorylation
- STAT3 phosphorylation (STAT3; naïve CD8+ T cells, anti-CD3/CD28 beads, 30 minutes after activation): strong
- STAT5 phosphorylation (STAT5): weak
- proliferation in response to IL-2 (expanded CTLs): enhanced
- proliferation in response to IL-15 (expanded CTLs): enhanced

Molecule: O=C(CCCCCCC(=O)Nc1ccccc1)NO [SAHA, Suberoylanilide Hydroxamic Acid]
- CD28 expression [2]: upregulated
- cell death in REP culture [4]: caused dramatic cell death
- viable cells at the end of REP [4]: few viable cells
- AcH3 level on the CD28 promoter (CD28 promoter; M27-specific effector CD8+ T cells, SAHA 24 hours): significantly increased
- IL-21-induced STAT3 (pSTAT3) binding to the CD28 promoter (CD28 promoter; SAHA 24 hours, then IL-21 30 minutes): allowing IL-21-induced STAT3 to bind to the same DNA region; also recorded: increased; also recorded: allows IL-21-induced pSTAT3 to access the CD28 promoter
- AcH3 level by western blot ([5]; H3 and β-actin as loading controls): dose-dependent increase; also recorded: increases H3 acetylation in a dose-dependent manner
- SAHA concentration that augmented AcH3 level ([5]; effector CD8+ T cells): ≥ 1 µM
- SAHA concentration that could augment AcH3 levels ([5]; titration study, effector CD8+ T cells): ≥ 1 µM

Molecule: Cc1[nH]c2ccccc2c1CCNCc1ccc(/C=C/C(=O)NO)cc1 [Panobinostat]
- cytotoxicity ([4]; screen of HDACi): minimal cytotoxicity
- Panobinostat dose that increased AcH3 level [5]: ≥ 0.5 nM
